Measured values taken from US20110045101A1, “FUNGICIDAL SUBSTITUTED AZOLES” (E.I. Du Pont De Nemours and Company, priority 2009, published 2011).
Marks after values point to notes of the source that are not given here.

Key:
Format in all cases: in vivo
Details in all cases: 100 = 100% disease control
[1] = tested on: Erysiphe graminis f. sp. tritici; assay: Test J: wheat powdery mildew on wheat seedlings, sprayed the day before inoculation, visual disease rating
Summary of the method: (§1)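 Plants received a run-off spray at 200 ppm (equivalent to 500 g/ha) or, for starred values, 40 ppm. Formulation used acetone at 3% of volume in a 50/50 acetone/water mix carrying 250 ppm Trem® 014.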

[2] = tested on: Puccinia recondita f. sp. tritici; assay: Test H: wheat leaf rust, test suspension sprayed after inoculation of wheat seedlings, visual disease rating
Summary of the method: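 Wheat seedlings inoculated with P. recondita spores, held 24 h saturated at 20 °C, then 2 days in growth chamber at 20 °C; compound suspension (acetone/water with Trem 014) sprayed to run-off afterwards. Rated visually; 200 ppm (≈500 g/ha) unless marked *, which denotes 40 ppm.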

Alternaria solani = assay: Test D: tomato early blight, sprayed the day before inoculation, visual disease rating
Summary of the method: as §1

Septoria tritici = assay: Test G: wheat leaf blotch on wheat seedlings, sprayed the day before inoculation, visual disease rating
Summary of the method: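 Wheat seedlings were sprayed with compound suspensions, 200 ppm unless starred (40 ppm). After next-day spore inoculation, plants spent 48 h saturated at 24° C, then 19 days at 20° C, when disease was rated visually.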

Botrytis cinerea = assay: Test C: tomato Botrytis on tomato seedlings, sprayed the day before inoculation, visual disease rating
Summary of the method: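 Rate: 200 ppm sprayed to run-off, corresponding to 500 g/ha; flagged values used 40 ppm. Vehicle was aqueous acetone (1:1) plus 250 ppm surfactant, compounds predissolved in acetone at 3% of volume. Plants were tomato seedlings.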

Septoria nodorum = assay: Test F: wheat glume blotch on wheat seedlings, sprayed the day before inoculation, visual disease rating
Summary of the method: as §1

[3] = tested on: Puccinia recondita f. sp. tritici; assay: Test I: wheat leaf rust on wheat seedlings, sprayed the day before inoculation, visual disease rating
Summary of the method: as §1

[4] = 200 ppm, 0 = no control relative to controls

Row | SMILES | Test J disease control rating [1, 4] [%] | Test H disease control rating [2, 4] [%] | Test D disease control rating (Alternaria solani; [4]) [%] | Test G disease control rating (Septoria tritici; [4]) [%] | Test C disease control rating (Botrytis cinerea; [4]) [%] | Test F disease control rating (Septoria nodorum; [4]) [%] | Test I disease control rating [3, 4] [%] | Test J disease control rating ([1]; 40 ppm (marked *)) | Test H disease control rating ([2]; 40 ppm (marked *)) | Test D disease control rating (Alternaria solani; 40 ppm (marked *)) | Test G disease control rating (Septoria tritici; 40 ppm (marked *)) | Test C disease control rating (Botrytis cinerea; 40 ppm (marked *)) | Test F disease control rating (Septoria nodorum; 40 ppm (marked *)) | Test I disease control rating ([3]; 40 ppm (marked *))
1 | Cc1nc(Cl)c(-c2c(F)cc(F)cc2F)n1-c1ccc(OC(F)F)cc1 [compound 610] | 100 | 100 | 100 | 99 | 99 | 99 | 100 | – | – | – | – | – | – | –
2 | Cc1nc(Cl)c(-c2c(F)cc(F)cc2F)n1-c1cccc(OC(F)(F)F)c1 [compound 611] | 57 | 0 | 66 | 81 | 91 | 0 | 16 | – | – | – | – | – | – | –
3 | Cc1nc(Cl)c(-c2c(F)cc(F)cc2F)n1-c1ccc(OC(F)(F)F)cc1 [compound 612] | 100 | 0 | 100 | 96 | 99 | 60 | 8 | – | – | – | – | – | – | –
4 | COc1cc(F)c(-c2c(Cl)nc(C)n2-c2ccc(C)c(C#N)c2)c(F)c1 [compound 613] | – | – | – | – | – | – | – | 21* % | 15* % | 100* % | 99* % | 99* % | 64* % | 97* %
5 | COC(=O)c1ccc(-n2cnc(Cl)c2-c2c(F)cccc2F)cc1 [compound 614] | – | – | – | – | – | – | – | 0* % | 0* % | 0* % | 92* % | 89* % | 0* % | 28* %
6 | COc1ccc(F)c(-c2c(Cl)nc(C)n2-c2ccc(C#N)cc2)c1F [compound 615] | 100 | 0 | 100 | 100 | 100 | 0 | 99 | – | – | – | – | – | – | –
7 | COc1ncccc1-n1c(Cl)nc(Cl)c1-c1c(F)cccc1F [compound 616] | 99 | 0 | 0 | 99 | 100 | 0 | 98 | – | – | – | – | – | – | –
8 | Fc1cccc(F)c1-c1c(Cl)nc(Cl)n1-c1cccnc1Cl [compound 617] | 99 | 100 | 99 | 100 | 99 | 0 | 100 | – | – | – | – | – | – | –
9 | Fc1cccc(F)c1-c1c(Br)nc(Br)n1-c1cccnc1Cl [compound 618] | 97 | 99 | 85 | 98 | 98 | 0 | 99 | – | – | – | – | – | – | –
10 | COc1nc(Cl)ccc1-n1c(Cl)nc(Cl)c1-c1c(F)cccc1F [compound 619] | 99 | 51 | 53 | 96 | 99 | 0 | 98 | – | – | – | – | – | – | –
11 | COc1ccc(-n2c(Cl)nc(Cl)c2-c2c(F)cccc2F)c(Cl)n1 [compound 620] | 99 | 100 | 99 | 98 | 100 | 90 | 100 | – | – | – | – | – | – | –
12 | COc1ccc(-n2c(Cl)nc(Cl)c2-c2c(F)cccc2F)cn1 [compound 621] | 100 | 100 | 100 | 98 | 100 | 99 | 100 | – | – | – | – | – | – | –
13 | COc1ccc(-n2c(Br)nc(Br)c2-c2c(F)cccc2F)cn1 [compound 622] | 100 | 100 | 100 | 99 | 100 | 99 | 100 | – | – | – | – | – | – | –
14 | Fc1cccc(-n2cnc(Cl)c2-c2c(F)ccc(Br)c2F)c1 [compound 623] | 100 | 0 | 33 | 97 | 98 | 0 | 98 | – | – | – | – | – | – | –
15 | COc1cc(F)c(-c2c(Cl)nnn2-c2ccc(Cl)cc2)c(F)c1 [compound 626] | 97 | 17 | 99 | 100 | 99 | 0 | 79 | – | – | – | – | – | – | –
16 | COc1cc(F)c(-c2c(Br)nnn2-c2ccc(Cl)cc2)c(F)c1 [compound 627] | 98 | 40 | 99 | 99 | 99 | 0 | 95 | – | – | – | – | – | – | –
17 | COc1cc(F)c(-c2c(C)nnn2-c2ccc(Cl)cc2)c(F)c1 [compound 628] | 99 | 0 | 100 | 100 | 99 | 0 | 99 | – | – | – | – | – | – | –
18 | Cc1ccc(-n2c(C)nc(Cl)c2-c2c(F)cc(OC(F)F)cc2F)cc1 [compound 631] | 100 | 40 | 99 | 100 | 99 | 0 | 99 | – | – | – | – | – | – | –
19 | COC(=O)c1ccc(-n2cnc(N(C)C)c2-c2c(F)cccc2F)cc1 [compound 633] | – | – | – | – | – | – | – | 0* % | 0* % | 0* % | 0* % | 0* % | 0* % | 44* %
20 | CN(C)c1ccc(-n2cnc(N(C)C)c2-c2c(F)cccc2F)cc1 [compound 634] | – | – | – | – | – | – | – | 0* % | 0* % | 0* % | 0* % | 0* % | 0* % | 0* %
